Test results as given in patent US20030157516A1, “G protein coupled receptor” (priority 2000, published 2003).
Several values for one entry are separate records, joined by “and”; a condition that tells them apart may be missing. Equal entries are not always repeated.

How the values were obtained:
[1] = target: T1, adenine binding GPCR (Rattus norvegicus, UniProt Q7TN49); experiment: FLIPR Ca2+ transient assay, antagonism of 30 nM adenine challenge; type: cell-based; settings: 15 minutes incubation with compound (30 μM to 30 pM), then challenge with 30 nM adenine
T1 construct: The full length reading frame was inserted into the mammalian expression vector pcDNA3; expressed in transfected cells; host or cells: HEK293 cells stably transfected with pLEC/Gqi or pLEC/Gqo
T1 sequence (Q7TN49 1-304): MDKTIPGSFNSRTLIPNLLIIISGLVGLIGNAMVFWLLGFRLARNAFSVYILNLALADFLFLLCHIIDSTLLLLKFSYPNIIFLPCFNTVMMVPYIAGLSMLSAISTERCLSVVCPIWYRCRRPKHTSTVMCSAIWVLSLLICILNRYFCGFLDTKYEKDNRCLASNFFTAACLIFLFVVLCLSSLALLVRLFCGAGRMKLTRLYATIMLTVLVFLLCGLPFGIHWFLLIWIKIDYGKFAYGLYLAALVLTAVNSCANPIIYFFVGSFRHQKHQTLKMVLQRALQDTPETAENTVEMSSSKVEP
From the text: (§1) The full length reading frame was inserted into the mammalian expression vector pcDNA3 (Invitrogen, Carlsbad, Calif., U.S.A.) and the resulting expression construct was transiently transfected with the FuGENE 6 reagent (Roche Molecular Biochemicals, Mannheim, Germany) into HEK293 cells stably transfected (E. Bender, unpublished) with pLEC/Gqi or pLEC/Gqo (Molecular Devices, Sunnyvale, Calif., U.S.A.). The cells were loaded with Fluo-4 (Molecular Probes, Eugene, Oreg., U.S.A.) according to the recommendations of the supplier.
After a 15 minutes incubation at room temperature, the same cells were challenged with 30 nM adenine, to detect antagonistic properties of molecules added in the first round of superfusion.

[2] = target: T2, adenine binding rat receptor (Rattus norvegicus, UniProt Q7TN49); experiment: [3H]adenine competition binding on CHO membranes transiently transfected; settings: transfected cells, 15 nM [3H]adenine
T2 construct: expressed in transfected cells; host or cells: CHO cells, transient, lipofectamine PLUS
T2 sequence (Q7TN49 1-304): T1 sequence (Q7TN49 1-304)
Method: (§2) The membranes were prepared as total particulate fractions. The cell lines were cultured to 906 confluency on 145 mm petri dishes and treated with 5 mM sodium butyrate, 24 hours before collection. The culturing medium was removed and the cells were washed twice with ice cold phosphate buffered saline (PBS without Ca^2+ and Mg^2+), scraped from the plates in 50 mM Tris-HCl buffer, pH 7.4, and collected by centrifugation (10 minutes at 16,000 RPM at 4° C.). The cell pellet was re-suspended in hypotonic 5 mM Tris-HCl buffer, pH 7.4, and homogenized with an Ultra Turrax homogenizer (Janker Kunkel, Germany). The homogenate was centrifuged at 18,000 RPM for 20 minutes at 4° C. The final pellet was re-suspended in 50 mM Tris-HCl buffer, pH 7.4 and stored in aliquots at −70° C. A protein determination was performed using the Bradford protein assay (Biorad, Germany) using bovine serum albumin (BSA) as standard.
(§3) A) Methods—[3H]Adenine binding experiments were performed to characterize wild type cell lines before transfection as well as transiently and permanently transfected cell lines. Membranes were thawed on ice and diluted in 50 mM HEPES buffer, pH 7.4 supplemented with 10 mM MgCl2 and 1 mM EGTA. […] Both assays were carried out in a final volume of 500 μl, using 18 μg of membrane protein for the transfected CHO cells and 30 μg of membrane protein for the wild type CHO cells for the saturation binding. For competition binding experiments, 15 and 50 μg of membrane protein was used for the transfected and wild type cells, respectively. The reaction was terminated by rapid filtration through Whatman GF/B filters using a Brandel multi-channel cell harvester (96 wells). The filters were washed three times with 3 ml ice cold 50 mM HEPES buffer, pH 7.4, transferred to liquid scintillation vials and 3 ml of scintillation fluid (Ultima Gold MV, Packard, Netherlands) was added. Samples were counted in a β-scintillation counter after at least 6 hours to permit the glass fiber filters to become uniformly translucent.

[3] = system: wild type CHO cells; experiment: [3H]adenine competition binding on wild type CHO membranes; settings: 15 nM [3H]adenine
Method: as §2, with “The cell lines were cultured to 906 confluency on 145 mm petri dishes and treated with 5 mM sodium butyrate, 24 hours before collection.” left out
as §3, with “Membranes” for “A) Methods—[3H]Adenine binding experiments were performed to characterize wild type cell lines before transfection as well as transiently and permanently transfected cell lines. Membranes”

[4] = target: T3, rat adenine binding GPCR (Rattus norvegicus, UniProt Q7TN49); experiment: FLIPR Ca2+ transient assay, agonism, HEK293/Gq chimera cells transiently transfected with rat adenine binding GPCR/pcDNA3; type: cell-based; parameters: The full length reading frame was inserted into the mammalian expression vector pcDNA3; expressed in transfected cells; host or cells: HEK293 cells stably transfected with pLEC/Gqi or pLEC/Gqo; settings: for calcium transients elicited: HEK293/Gaqo cells, 3.3 μM; for agonistic effects on Ca2+ transients: concentrations ranging from 30 μM to 30 pM
T3 sequence (Q7TN49 1-304): T1 sequence (Q7TN49 1-304)
From the text: This assay is based around an instrument called a FLuorescence Imaging Plate Reader ((FLIPR®), Molecular Devices Corporation). In its most common configuration, it excites and measures fluorescence emitted by fluorescein-based dyes. It uses an argon-ion laser to produce high power excitation at 488 nm of a fluorophore, a system of optics to rapidly scan the over the bottom of a 96-/384-well plate and a sensitive, cooled CCD camera to capture the emitted fluorescence. It also contains a 96-/384-well pipetting head allowing the instrument to deliver solutions of test agents into the wells of a 96-/384-well plate. The FLIPR assay is designed to measure fluorescence signals from populations of cells before, during and after addition of compounds, in real time, from all 96-/384-wells simultaneously. […] As described below, calcium transients in cells transfected with adenine binding GPCR were measured using the FLIPR assay in order to measure activation of the receptors by various substrates in order to determine the natural ligand of the receptor.
as §1, with “supplier. […]” for “supplier.”
Using the FLIPR assay as above, calcium transients were measured in both sets of cells with the transients attributable to the novel GPCR measured as the difference between the two transients. Results are illustrated in FIG. 4. […]

[5] = system: C6 glioma; experiment: Preliminary [3H]adenine binding on wild-type cells
Method: as §3
(§4) The assay conditions were identical to those for the transfected cells.

[6] = system: CHO; experiment: Preliminary [3H]adenine binding on wild-type cells; settings: pool 1 and pool 2
Method: as §3, §4

[7] = system: Cos7; experiment: Preliminary [3H]adenine binding on wild-type cells
Method: as §3, §4

[8] = system: HEK293; experiment: Preliminary [3H]adenine binding on wild-type cells
Method: as §3, §4

[9] = system: NIH3T3; experiment: Preliminary [3H]adenine binding on wild-type cells
Method: as §3, §4

[10] = target: T2, adenine binding rat receptor; experiment: [3H]adenine saturation binding on CHO membranes transiently transfected; settings: transfected cells
Method: as §2, §3
Addition of Gpp-NHp blocks the high-affinity or agonist binding sites of GPCRs, so that only low-affinity sites are available.

[11] = system: wild type CHO cells; experiment: [3H]adenine saturation binding on wild type CHO membranes; settings: mean n=3
Method: as §2
A) Methods—[3H]Adenine binding experiments were performed to characterize wild type cell lines before transfection as well as transiently and permanently transfected cell lines. Membranes were thawed on ice and diluted in 50 mM HEPES buffer, pH 7.4 supplemented with 10 mM MgCl2 and 1 mM EGTA. […] Samples were counted in a β-scintillation counter after at least 6 hours to permit the glass fiber filters to become uniformly translucent. […]

[12] = system: wild type CHO cells; experiment: cAMP measurements on wild type CHO cells; type: cell-based; settings: wild type
Method: For permanently transfected CHO cells, cAMP measurements were performed using the indirect RIA kit from NEN (Belgium).
a) Methods: Two days before the experiment the cells were seeded out in a 96 well plate at a density required for approximately 90% confluence at the day of the experiment. After removal of the growth medium, the cells were washed twice with a controlled salt solution (CSS) containing 25 mM Tris-HCl, pH 7.4, 120 mM NaCl, 5.4 mM KCl, 0.8 mM MgCl2, 1.8 mM CaCl2, 15 mM glucose and 15 mg/l phenol red, with an addition of a phosphodiesterase inhibitor IBMX (3-isobutyl-1-methylxanthine) in a concentration of 1 mM and […]. Basal cAMP levels were determined in CSS containing these additives and maximally stimulated cAMP levels were determined in the presence of 50 μM forskolin. For testing agonistic activity, the compounds were incubated with the cells for 20 minutes at 37° C. The reaction was stopped by addition of ice cold HClO4 (1N) and stored at −20° C. After thawing the mixtures were neutralized with an equivalent amount of phosphate buffered KOH, left at 4° C. during 30 minutes to allow the salts to precipitate and centrifuged at 2,000 RPM for 5 minutes at 4° C.
For the quantitative determination of the cAMP levels, a 96-well Flashplate radioimmunoassay kit from NEN was used, according to the protocol of the supplier. The sigmoid concentration response curves (duplicate points) were analyzed using the GraphPad Prism program.

SMILES | antagonistic effect [1] | IC50 ([2]; mean of n experiments) [µM] | IC50 ([2]; single experiments) | pIC50 ([3]; mean of n experiments) | pIC50 ([3]; single experiments) | calcium transients elicited [4] | agonistic effects on Ca2+ transients [4] | further results
Nc1ncnc2c1ncn2[C@@H]1O[C@H](CO)[C@@H](O)[C@H]1O [Adenosine, adenosine] | did not elicit antagonistic effects | ~100 | > 100 µM and 72.4 µM | <4 | <4 | – | – | Ki ([2]; single experiments): 44.6 µM; agonism of nucleoside and nucleotide derivatives of adenine ([4]; at high concentrations (>3.3 μM)): weak partial agonism
Nc1nc2nc[nH]c2c(=O)[nH]1 [Guanine, guanine] | weak antagonistic effect | > 100 | > 100 µM | <4 | <4 | could not be elicited | No further agonistic effects | –
O=c1[nH]cnc2nc[nH]c12 [Hypoxanthine, hypoxanthine] | did not elicit antagonistic effects | > 100 | > 100 µM | <4 | <4 | could not be elicited | No further agonistic effects | –
O=c1ccn([C@@H]2O[C@H](CO)[C@@H](O)[C@H]2O)c(=O)[nH]1 [Uridine, uridine] | did not elicit antagonistic effects | > 100 | > 100 µM | <4 | <4 | could not be elicited | No further agonistic effects | –
Nc1ncnc2nc[nH]c12 [[^3H]adenine] | – | – | – | – | – | – | – | [3H]adenine binding [5]: 839 fmoles/mg protein; [3H]adenine binding [6]: 303 fmoles/mg protein (pool 1) and 583 fmoles/mg protein (pool 2); [3H]adenine binding [7]: 226 fmoles/mg protein; [3H]adenine binding [8]: 168 fmoles/mg protein; [3H]adenine binding [9]: 642 fmoles/mg protein; average saturation binding levels [10]: around 19 pmol/mg; Bmax ([10]; 100 μM Gpp-NHp, mean n=3): 17341 fmoles/mg protein; Kd ([10]; 100 μM Gpp-NHp, mean n=3): 0.061 µM; Kd ([10]; 100 μM Gpp-NHp, single experiments): 0.057 µM and 0.072 µM and 0.054 µM; Bmax ([10]; No Gpp-NHp, mean n=3): 18894 fmoles/mg protein; Kd ([10]; No Gpp-NHp, mean n=3): 0.024 µM; Bmax ([10]; No Gpp-NHp, single experiments): 25375 fmoles/mg protein and 17569 fmoles/mg protein and 13738 fmoles/mg protein; Kd ([10]; No Gpp-NHp, single experiments): 0.023 µM and 0.025 µM; Kd ([11]; 100 μM Gpp-NHp): 0.016 µM; Kd ([11]; No Gpp-NHp): 0.026 µM
C=C[C@@]1(C)CC(=O)[C@]2(O)[C@@]3(C)[C@@H](O)CCC(C)(C)[C@@H]3[C@H](O)[C@H](OC(C)=O)[C@@]2(C)O1 [forskolin] | – | – | – | – | – | – | – | cAMP level with Forskolin 50 μM ([12]; 0.5% hiFCS, induction): 25 pmol/well; cAMP level with Forskolin 50 μM ([12]; 0.5% hiFCS, no induction): 26 pmol/well; cAMP level with Forskolin 50 μM ([12]; 10% hiFCS, induction): 63 pmol/well; cAMP level with Forskolin 50 μM ([12]; 10% hiFCS, no induction): 107 pmol/well
